According to patent publication US6387922B2, “Annulated azole derivatives useful as microbicidal agents” (Bayer Aktiengesellschaft, priority 1997, dated 2002):

Assays:
[1] = test system: Venturia inaequalis; test: Venturia Test (Apple)/protective; assay type: in vivo; conditions: apple young plants, protective spray, application rate 100 g/ha, evaluation 12 days after inoculation; 0% = as control, 100% = no infection
Method: Venturia Test (Apple)/protective
(§1) Solvent: 47 parts by weight of acetone
(§2) Emulsifier: 3 parts by weight of alkyl-aryl polyglycol ether
To produce a suitable preparation of active compound, 1 part by weight of active compound is mixed with the stated amounts of solvent and emulsifier, and the concentrate is diluted with water to the desired concentration.
To test for protective activity, young plants are sprayed with the preparation of active compound at the stated application rate. After the spray coating has dried on, the plants are inoculated with an aqueous conidia suspension of the causative organism of apple scab Venturia inaequalis and then remain in an incubation cabin at approximately 20° C. and 100% relative atmospheric humidity for 1 day.
The plants are then placed in a greenhouse at approximately 21° C. and a relative atmospheric humidity of approximately 90%.
Evaluation is carried out 12 days after the inoculation. 0% means an efficacy which corresponds to that of the control, whereas an efficacy of 100% means that no infection is observed.

[2] = test system: Plasmopara viticola; test: Plasmopara Test (grapevine)/protective; assay type: in vivo; conditions: grapevine young plants, protective spray, application rate 100 g/ha, evaluation 6 days after inoculation; 0% = as control, 100% = no infection
Method: Plasmopara Test (grapevine)/protective
as §1, §2
To produce a suitable preparation of the active compound, 1 part by weight of active compound is mixed with the stated amounts of solvent and emulsifier, and the concentrate is diluted with water to the desired concentration.
To test for protective activity, young plants are sprayed with a preparation of active compound at the stated application rate. After the spray coating has dried on, the plants are inoculated with an aqueous spore suspension of Plasmopara viticola and then remain in an incubation cabin at approximately 20° C. and 100% relative atmospheric humidity for 1 day. The plants are then placed in a greenhouse at approximately 21° C. and approximately 90% atmospheric humidity for 5 days. The plants are then moistened and placed in an incubation cabin for 1 day.
Evaluation is carried out 6 days after the inoculation. 0% means an efficacy which corresponds to that of the control, whereas an efficacy of 100% means that no infection is observed.

SMILES	melting point	Efficacy in % [1]	Efficacy in % [2]
Cc1noc(C)c1S(=O)(=O)n1cnc2cnccc21 [Example 2, 1-(3,5-dimethyl-isoxazole-4-sulphonyl)-1H-imidazo[4,5-c]pyridine]	130 to 135 °C	95%	90%
Cc1noc(C)c1S(=O)(=O)n1nnc2ccccc21 [1-(3,5-dimethyl-isoxazol-4-sulphonyl)-1H-benzotriazole, reference compound]	–	0%	49%
